Assay results taken from paper PMC10120462, “Styrylquinazoline derivatives as ABL inhibitors selective for different DFG orientations” (Journal of Enzyme Inhibition and Medicinal Chemistry, 2023).

Key:
CSK = target: T1, CSK (Homo sapiens, UniProt P41240); test: Tyrosine kinase assay (Kinase Selectivity System TK-2, ADP-Glo); type: biochemical; conditions: 1 h incubation, mean ± SD of four experiments
T1 construct: purchased Promega

BRK = target: T2, BRK (Homo sapiens, UniProt Q13882); test: as above; type: biochemical; conditions: 1 h incubation, mean ± SD of four experiments
T2 construct: purchased Promega

K562 cells [1] = test: Cell cycle assay (Muse Cell-Cycle Kit, flow cytometry); type: cell-based, human; conditions: 16 h
Description: The interesting inhibitory potential of ABL kinase and the high antiproliferative activity of several styrylquinazoline derivatives prompted us to further investigate their mechanism of action.
K562 cells were seeded in 3 cm Petri dishes (Nunc) at a density of 150,000 cells per well and incubated under standard conditions at 37 °C for 24 h. […] After 16 h of treatment, assays were performed using a Muse Cell-Cycle Kit (Millipore) according to the supplier’s instructions. Briefly, leukaemia cells were collected, washed in cold PBS, and centrifuged. Cells were then fixed in ice-cold 70% ethanol and stored at −20 °C overnight. The next day, leukaemia cells were washed with cold PBS, centrifuged and resuspended in Muse™ Cell Cycle Reagent. Samples were incubated for 30 min at room temperature in the dark. After staining, the levels of cellular subpopulations in each cell cycle phase were determined using a Muse Cell Analyser (Millipore). Experiments were performed at least four times.

Lyn B = target: T3, Lyn B (Homo sapiens, UniProt P07948); test: Tyrosine kinase assay (Kinase Selectivity System TK-2, ADP-Glo); type: biochemical; conditions: 1 h incubation, mean ± SD of four experiments
T3 construct: purchased Promega

K562 cells [2] = test: Analysis of mRNA expression (RT-qPCR); type: cell-based, human; conditions: 16 h; IS1 50 µM, IS8 12 µM, IS10 20 µM, imatinib 2 µM, GNF-2 2 µM
Description: In the next step, the inhibitory potential of the tested compounds at the gene and protein levels was verified in K562 cells. For this purpose, we examined changes in the expression of the ABL signalling pathway and ABL downstream targets after exposure to IS1, IS8 and IS10. […] The enhanced transcription of the ABL gene might be related to the low protein level that was reached after exposure to the tested drugs. Thus, the cellular machinery could induce increased protein synthesis to counteract the effects of inhibition. […] The second gene studied, SRC, is involved in signal transduction from growth factors and receptors. Similar to ABL, the Src protein has oncogenic activity and is overexpressed in cancer cells. It is also important to emphasise that both kinases form a specific direct signalling network, as […].
Reverse transcription was carried out with 1 μg total RNA using a ProtoScript M-MuLV First Strand cDNA Synthesis Kit (New England BioLabs). The RT-qPCR was performed using a CTX96 Real-Time PCR Detection System (Biorad) in a 10 μL reaction volume containing Luna Universal qPCR Master Mix (New England BioLabs), specific primer pair mix and cDNA. The PCR reaction was performed as follows: initial denaturation at 95 °C for 60 s; followed by 40 cycles of denaturation at 95 °C, 15 s; annealing (primer-specific temperature for 30 s) and extension at 72 °C for 30 s. Melting curve analysis was used to determine the specific PCR products. The results were analysed based on comparison of the expression of the target genes with the reference gene – HPRT1 using the 2^−^ΔΔ^CT method. Experiments were performed at least four times.

Fyn A = target: T4, Fyn A (Homo sapiens, UniProt P06241); test: Tyrosine kinase assay (Kinase Selectivity System TK-2, ADP-Glo); type: biochemical; conditions: 1 h incubation, mean ± SD of four experiments
T4 construct: purchased Promega
Description: All newly synthesised derivatives were screened for their inhibitory potential towards eight non-receptor tyrosine kinases, such as ABL, BTK, BRK and Src family kinases, such as CSK, Lyn, Lck, Fyn and Src. […] To facilitate the analysis of the structure and enzymatic activity, all tested compounds were divided into four subgroups based on the main structural scaffolds (the general structure of each group is shown in the second column of Table 1). Series A, B, and C were subdivided according to the S^4-aryl substituent, while D represents the different styryl groups at the C^2-quinazoline position.
Herein, we used a kinase assay that contained fully expressed kinases with their regulatory domains, which are responsible for autoinhibition. The proteins are present in their unphosphorylated form and the procedure required supplementation with ATP. Importantly, autophosphorylation of ABL is dependent on […] concentration of the protein. Thus, our experimental conditions reflect the cellular process to be simulated. The luminescence signal detected after one hour of incubation with a peptide substrate was a measure of inhibition. Under these conditions, the question of whether the inhibitors tested bind to the ortho or allosteric site of the protein could be answered. […] To test this hypothesis, further molecular docking experiments were performed to more precisely determine the binding of the tested compounds to the ABL kinase.
To determine the inhibition of non-receptor tyrosine kinases, assays were performed using the kinase selectivity system TK-2 and the ADP-Glo Kinase Assay (both from Promega). The protocol was previously developed by our group and described in reports[12]^,[36]. Experiments were performed at least four times. Data are expressed as percentage of tyrosine kinase inhibitory activity after treatment with the derivatives tested.

K562 cells [3] = test: Immunoblotting; type: cell-based, human; conditions: 16 h
Description: Changes in the expression of the BCR-ABL and ABL proteins and their downstream targets, such as STAT5, Src, Akt and Fyn after treatment with the tested compounds were also examined. As shown in Figure 7(B), no significant changes in the phosphorylation of BCR-ABL were observed after treatment with the tested styrylquinazolines. […] For reference inhibitors, there were greater changes in the expression of this protein. There were also interesting changes in the downstream targets of ABL, STAT5 and Src. […] Unfortunately, contrary to our assumptions and earlier results, IS1 was ineffective in inhibiting ABL, STAT5, and Src phosphorylation at the concentrations used. However, this derivative caused downregulation of Fyn expression, which could confirm its high inhibitory potential from in vitro kinase assays. […] Thus, these compounds were capable of blocking the pro-survival pathway facilitated by Akt kinase.
Prior to the experiment, K562 cells were seeded at a density of 500,000 cells per well in 3 cm Petri dishes (Nunc). […] After 16 h of exposure, cells were collected, centrifuged, and lysed on ice in complete RIPA buffer containing Halt Protease Inhibitor Cocktail, Halt Phosphatase Inhibitor Cocktail and 0.5 M EDTA (all from Thermo Scientific). Protein quantification was measured using a BCA Protein Assay Kit (Thermo Scientific) according to the manufacturer’s protocol. Equal amounts of the proteins were electrophoresed on SDS-page gels and transferred to nitrocellulose membranes. After blocking in 5% non-fat milk prepared in TTBS (Tris buffered saline with Tween 20), membranes were incubated overnight at 4 °C with specific primary antibodies (all from Cell Signalling) at a dilution of 1:1000 for c-ABL, phospho-c-ABL, Stat5, phospho-Stat5, cyclin E1, p27, PARP, AIF, BID, Src, Fyn, Akt, phospho-Akt, and at a dilution of 1:2000 for reference proteins (vinculin, β-actin and GAPDH). The next day, membranes were washed and incubated with horseradish peroxidase (HRP)-conjugated secondary antibodies for 1 h at room temperature. Chemiluminescence signals were recorded after staining with SuperSignal™ West Pico Chemiluminescent Substrate (Thermo Scientific) using a ChemiDoc™ XRS + System (BioRad). Experiments were performed four to five times. Densitometric analysis was performed using ImageJ software (Wayne Rasband, National Institutes of Health, USA).

BTK = target: T5, BTK (Homo sapiens, UniProt Q06187); test: Tyrosine kinase assay (Kinase Selectivity System TK-2, ADP-Glo); type: biochemical; conditions: 1 h incubation, mean ± SD of four experiments
T5 construct: purchased Promega
T5 sequence (Q06187 whole entry): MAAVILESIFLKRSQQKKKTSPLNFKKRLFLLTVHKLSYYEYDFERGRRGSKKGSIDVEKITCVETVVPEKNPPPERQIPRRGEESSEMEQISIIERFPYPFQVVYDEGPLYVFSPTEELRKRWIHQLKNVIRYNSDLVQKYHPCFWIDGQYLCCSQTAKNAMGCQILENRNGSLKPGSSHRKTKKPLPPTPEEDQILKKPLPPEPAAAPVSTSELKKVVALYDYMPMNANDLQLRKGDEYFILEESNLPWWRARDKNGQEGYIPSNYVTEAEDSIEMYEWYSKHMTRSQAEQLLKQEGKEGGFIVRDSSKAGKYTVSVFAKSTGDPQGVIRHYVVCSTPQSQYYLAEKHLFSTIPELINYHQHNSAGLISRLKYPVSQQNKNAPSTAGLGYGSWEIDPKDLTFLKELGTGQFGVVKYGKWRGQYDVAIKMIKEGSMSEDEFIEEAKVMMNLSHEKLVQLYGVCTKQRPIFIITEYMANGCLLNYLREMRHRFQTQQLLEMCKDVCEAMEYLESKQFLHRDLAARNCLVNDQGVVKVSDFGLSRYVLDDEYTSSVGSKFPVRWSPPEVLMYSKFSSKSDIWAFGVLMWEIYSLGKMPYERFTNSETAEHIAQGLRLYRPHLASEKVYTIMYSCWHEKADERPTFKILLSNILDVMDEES

T1 sequence (P41240 whole entry): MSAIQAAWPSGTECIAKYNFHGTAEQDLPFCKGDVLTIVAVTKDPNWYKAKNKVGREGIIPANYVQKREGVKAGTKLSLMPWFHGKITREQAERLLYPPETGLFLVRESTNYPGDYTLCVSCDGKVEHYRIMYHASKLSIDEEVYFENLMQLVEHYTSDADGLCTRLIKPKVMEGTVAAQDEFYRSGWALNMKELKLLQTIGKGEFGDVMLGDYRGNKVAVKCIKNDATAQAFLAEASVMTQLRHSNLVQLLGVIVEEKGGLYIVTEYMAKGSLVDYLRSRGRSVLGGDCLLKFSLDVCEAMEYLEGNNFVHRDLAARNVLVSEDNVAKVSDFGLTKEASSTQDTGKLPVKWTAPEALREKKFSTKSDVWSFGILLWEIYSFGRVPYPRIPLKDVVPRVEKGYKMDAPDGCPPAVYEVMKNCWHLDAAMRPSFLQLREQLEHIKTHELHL
T4 sequence (P06241 whole entry): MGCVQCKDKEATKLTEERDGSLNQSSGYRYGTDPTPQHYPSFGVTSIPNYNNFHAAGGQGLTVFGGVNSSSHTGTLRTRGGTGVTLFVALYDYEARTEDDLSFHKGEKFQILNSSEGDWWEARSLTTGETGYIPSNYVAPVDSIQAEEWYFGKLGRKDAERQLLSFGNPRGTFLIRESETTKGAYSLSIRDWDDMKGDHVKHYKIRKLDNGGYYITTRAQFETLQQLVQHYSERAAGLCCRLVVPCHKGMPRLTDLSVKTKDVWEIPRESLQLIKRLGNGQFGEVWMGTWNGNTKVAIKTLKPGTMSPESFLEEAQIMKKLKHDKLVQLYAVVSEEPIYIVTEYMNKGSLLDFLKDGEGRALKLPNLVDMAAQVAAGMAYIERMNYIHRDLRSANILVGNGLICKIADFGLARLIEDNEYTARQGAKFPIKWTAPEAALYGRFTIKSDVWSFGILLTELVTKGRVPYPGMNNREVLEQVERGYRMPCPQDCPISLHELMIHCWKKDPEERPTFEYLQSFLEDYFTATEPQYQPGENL
T2 sequence (Q13882 whole entry): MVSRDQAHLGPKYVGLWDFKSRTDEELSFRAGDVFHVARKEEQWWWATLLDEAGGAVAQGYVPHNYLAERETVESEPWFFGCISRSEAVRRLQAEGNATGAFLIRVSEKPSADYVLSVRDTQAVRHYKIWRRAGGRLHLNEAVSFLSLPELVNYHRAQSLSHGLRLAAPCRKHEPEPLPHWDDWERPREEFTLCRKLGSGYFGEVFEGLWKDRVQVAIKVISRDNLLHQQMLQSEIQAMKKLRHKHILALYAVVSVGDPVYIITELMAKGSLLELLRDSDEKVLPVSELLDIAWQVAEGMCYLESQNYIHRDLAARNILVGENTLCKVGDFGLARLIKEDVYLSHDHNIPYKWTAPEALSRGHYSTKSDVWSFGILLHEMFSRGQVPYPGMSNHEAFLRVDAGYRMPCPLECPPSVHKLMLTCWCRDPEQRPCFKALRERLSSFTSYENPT
T3 sequence (P07948 1-491 isoform P07948-2): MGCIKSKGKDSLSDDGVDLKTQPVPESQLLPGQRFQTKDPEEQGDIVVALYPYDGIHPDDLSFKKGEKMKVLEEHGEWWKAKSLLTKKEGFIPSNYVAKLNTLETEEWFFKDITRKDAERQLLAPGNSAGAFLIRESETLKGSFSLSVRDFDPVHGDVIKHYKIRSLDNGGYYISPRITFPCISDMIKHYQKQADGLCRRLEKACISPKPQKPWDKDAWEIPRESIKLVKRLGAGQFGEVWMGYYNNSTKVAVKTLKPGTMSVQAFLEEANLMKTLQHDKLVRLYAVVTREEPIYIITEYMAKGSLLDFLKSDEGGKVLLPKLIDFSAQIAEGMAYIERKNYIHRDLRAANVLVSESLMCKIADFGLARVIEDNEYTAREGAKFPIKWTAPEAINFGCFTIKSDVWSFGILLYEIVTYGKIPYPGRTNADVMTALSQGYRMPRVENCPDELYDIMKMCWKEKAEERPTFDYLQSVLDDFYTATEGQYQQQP

In the case of `Cc1ccc(NC(=O)c2ccc(CN3CCN(C)CC3)cc2)cc1Nc1nccc(-c2cccnc2)n1` [Imatinib, imatinib, reference compound], the inhibition at 0.5 µM (CSK) was 0%, the inhibition at 0.5 µM (BRK) was 0% and the “Cell cycle arrest (phase)” value (K562 cells [1]) was “inhibition of G0/G1 phase”. For the same molecule, the inhibition at 0.5 µM (Lyn B) was 0%, the “CCNE2 expression (mRNA)” value (K562 cells [2]) was “increase” and the “Expression of the ABL gene (mRNA)” value (K562 cells [2]) was “slight non-significant decrease”. For the same molecule, the “SRC mRNA levels” value (K562 cells [2]) was “significant decrease”, the inhibition at 0.5 µM (Fyn A) was 0% and the AIF protein (K562 cells [3]) was “significant increase”. The “Src protein expression / phosphorylation” value (K562 cells [3]) was “significant accumulation”, the STAT5 phosphorylation (K562 cells [3]; at the concentrations used) was “stronger effect” and the inhibition at 0.5 µM (BTK) was 0%.
